Test results taken from ChEMBL document CHEMBL1123446, “Amino-substituted p-benzoquinones” (1986).

How the values were obtained:
[1] = organism: Homo sapiens; test: In vitro significant inhibitory activity against human colon […]; format: functional; details: read-out: ID50 (the source's name)
[2] = tested on: L1210; test: In vitro significant inhibitory activity against L1210 leukemia cell lines; format: functional; details: Mus musculus, read-out: ID50 (the source's name)

Row | IC50 [1] | IC50 [2] | SMILES
1 | 140 nM | – | CN(C)Cc1ccc(NC2=C(Br)C(=O)C(Nc3ccc(CN(C)C)cc3)=C(Br)C2=O)cc1
2 | 100 nM | 37 nM | CN(C)Cc1ccc(NC2=C(Cl)C(=O)C(Nc3ccc(CN(C)C)cc3)=C(Cl)C2=O)cc1
3 | 80 nM | – | CO[C@H](C(=O)[C@@H](O)[C@@H](C)O)[C@@H]1Cc2cc3cc(O[C@H]4C[C@@H](O[C@@H]5C[C@@H](O)[C@H](O)[C@@H](C)O5)[C@H](O)[C@@H](C)O4)c(C)c(O)c3c(O)c2C(=O)[C@H]1O[C@H]1C[C@@H](O[C@@H]2C[C@@H](O)[C@@H](O[C@@H]3C[C@](C)(O)[C@H](O)[C@@H](C)O3)[C@@H](C)O2)[C@H](O)[C@@H](C)O1 [PLICAMYCIN]
